# Experiments:
# [1] = tested on: Aspergillus terreus CECT 2663; test: agar diffusion test with impregnated cellulose discs; type: cell-based; conditions: incl. 6 mm disc
# [2] = tested on: Penicillium sp. (CPC-PT-4); test: agar diffusion test, wild fungi isolated from crown rot in bananas; type: cell-based; conditions: incl. 6 mm disc
# Penicillium expansum = test: post-harvest rotting of inoculated apples, drencher treatment; type: in vivo; conditions: 15 days of refrigeration at 5-6° C.
# Description: (§1) The effectiveness of the active principle PTS (in various individual doses) was studied in the control of post-harvest rotting of pears and apples caused by the fungi Botrytis cinerea and Penicillium expansum, the principal agents of diseases in these fruits. These phytopathogens can appear in fruit being stored in a cold room and, once in the processing plant and in a later phase, form colonies and are transferred from one fruit to another by contact. The study was performed by means of a controlled inoculation test to ensure a high percentage of affected fruits, and to guarantee that this level of infection is with certainty caused by these pathogens, thereby making it possible to detect and evaluate significant differences between the different treatments. […] To perform the controlled inoculation, wild strains of Botrytris cinerea and Penicillium expansum were used which were isolated in fruit and vegetable processing plants. […] After the time indicated above had passed, the various post-harvest treatments were carried out by means of […] 25° C. for 60 seconds.
# Botrytis cinerea [3] = test: as above; type: in vivo; conditions: 15 days of refrigeration at 5-6° C.
# Description: as §1
# Botrytis cinerea [4] = test: field control of Botrytis in strawberries, foliar spraying; type: in vivo; conditions: after 12 days
# [5] = tested on: Penicillium digitatum Supplied by Brogdex SA; test: agar diffusion test, wild phytopathogens isolated from citrus rot; type: cell-based; conditions: incl. 6 mm disc
smiles,measurement,setting,value
"CCCS[S+]([O-])CCC (stereo not drawn) [PTS, Propyl Propyl Thiosulfinate]",diameter of the microbial inhibition halo,[1]; 25 ppm,12 mm
same,diameter of the microbial inhibition halo,[1]; 50 ppm,22 mm
same,diameter of the microbial inhibition halo,[1]; 100 ppm,25 mm
same,diameter of the microbial inhibition halo,[2]; 30 ppm,0 mm
same,diameter of the microbial inhibition halo,[2]; 60 ppm,11 mm
same,diameter of the microbial inhibition halo,[2]; 125 ppm,13 mm
same,diameter of the microbial inhibition halo,[2]; 250 ppm,20 mm
same,diameter of the microbial inhibition halo,[2]; 500 ppm,23 mm
same,diameter of the microbial inhibition halo,[2]; 1000 ppm,25 mm
same,% of fruit affected,"Penicillium expansum; Golden Delicious, 500 ppm",1.4%
same,% of fruit affected,"Penicillium expansum; Golden Delicious, 666 ppm",0.5%
same,% of fruit affected,"Penicillium expansum; Golden Delicious, 833 ppm",2.5%
same,% of fruit affected,"Penicillium expansum; Golden Delicious, 1666 ppm",0.7%
same,% of fruit affected,"Penicillium expansum; Red Chief, 500 ppm",2.8%
same,% of fruit affected,"Penicillium expansum; Red Chief, 666 ppm",0%
same,% of fruit affected,"Penicillium expansum; Red Chief, 833 ppm",3.2%
same,% of fruit affected,"Penicillium expansum; Red Chief, 1666 ppm",2.4%
same,% of fruit affected,"Botrytis cinerea [3]; Golden Delicious, 500 ppm",0.5%
same,% of fruit affected,"Botrytis cinerea [3]; Golden Delicious, 666 ppm",0%
same,% of fruit affected,"Botrytis cinerea [3]; Golden Delicious, 833 ppm",1%
same,% of fruit affected,"Botrytis cinerea [3]; Golden Delicious, 1666 ppm",0%
same,% of fruit affected,"Botrytis cinerea [3]; Red Chief, 500 ppm",1%
same,% of fruit affected,"Botrytis cinerea [3]; Red Chief, 666 ppm",0%
same,% of fruit affected,"Botrytis cinerea [3]; Red Chief, 833 ppm",1.5%
same,% of fruit affected,"Botrytis cinerea [3]; Red Chief, 1666 ppm",0%
same,% of fruit affected,Botrytis cinerea [4]; 2000 ppm,3.8%
same,No. of fruits affected,"Botrytis cinerea [4]; 2000 ppm, 150 fruits",6
same,% of fruit affected,Botrytis cinerea [4]; 2400 ppm,3.1%
same,No. of fruits affected,"Botrytis cinerea [4]; 2400 ppm, 148 fruits",5
same,% of fruit affected,Botrytis cinerea [4]; 4800 ppm,3.1%
same,No. of fruits affected,"Botrytis cinerea [4]; 4800 ppm, 141 fruits",4
same,% of fruit affected,Botrytis cinerea [4]; 9600 ppm,2%
same,No. of fruits affected,"Botrytis cinerea [4]; 9600 ppm, 114 fruits",2
same,diameter of the microbial inhibition halo,[5]; 30 ppm,12 mm
same,diameter of the microbial inhibition halo,[5]; 60 ppm,15 mm
same,diameter of the microbial inhibition halo,[5]; 125 ppm,20 mm
same,diameter of the microbial inhibition halo,[5]; 250 ppm,33 mm
same,diameter of the microbial inhibition halo,[5]; 500 ppm,33 mm
same,diameter of the microbial inhibition halo,[5]; 1000 ppm,35 mm
